Test results published in PMC12251549, “Engineering a Radiohybrid PSMA Ligand with an Albumin-Binding Moiety and Pharmacokinetic Modulation via an Albumin-Binding Competitor for Radiotheranostics” (Molecules, 2025).

Columns and labels:
[1] = In vitro stability test in 0.1 M phosphate buffer; type: physicochemical; settings: 0.1 M PB solution containing 10% ethanol, 37 °C, 24 h, mean ± SD for three samples
Method: samples were analyzed by RP-HPLC using a Cosmosil 5C18-AR-II (4.6 × 150 mm) at a flow rate of 1 mL/min with a gradient mobile phase of 60% methanol in water with 0.1% trifluoroacetic acid (TFA) to 80% methanol in water with 0.1% TFA for 20 min.
In vitro stability test in 0.1 M PB solution containing 10% ethanol was performed. The […]
and 97.1 ± 0.9% (mean ± SD for three samples) after incubating at 37 °C for 24 h, […]

[2] = tested on: PSMA-expressing LNCaP cells; assay: Cellular uptake and internalization in LNCaP cells, blocking with 2-PMPA; type: cell-based
Method: Cellular uptake experiments were performed according to a previous report with slight modifications. LNCaP cells expressing PSMA were cultured in RPMI 1640 medium containing 10% fetal bovine serum (FBS) and 1% penicillin–streptomycin on 6-well culture plates (containing 5 × 10^5 cells/well) for 24 h in a humidified atmosphere (5% CO2) incubator at 37 °C. After removing the medium and washing with phosphate-buffered saline (PBS) (−) once, a mixed solution of [^125I]5 and [^211At]6, [^125I]5 and [^67Ga]Ga-PSMA-617, and [^125I]5 and [^67Ga]5 in 1.0 mL of medium without FBS was added (3.7 kBq/each tracer/well). The final concentrations of the radioligands for [^125I]5, [^211At]6, and [^67Ga]5 were 45.5 pM, 0.2 pM, and 2.5 pM, respectively. These solutions containing radioligands were diluted in saline containing 0.05% (w/v) bovine serum albumin (BSA) to prevent adsorption to tubes or plates and further diluted with medium to 0.00125% as the final BSA concentration. After incubation for 10, 60, and 120 min, the medium from each well was removed, and the cells were washed twice with ice-cold PBS (−); the surface of the cells was washed twice with ice-cold 0.2 M glycine buffer (pH 3.0). The cells were lysed using a 1 M NaOH aqueous solution. The radioactivity of ^67Ga,^125I and ^211At in the 1 M NaOH aqueous solution was determined and defined as the internalized radioligand fraction using an auto well gamma counter (ARC-8001, Hitachi, Ltd., Tokyo, Japan) according to a previous paper. The radioactivity was determined with an auto well gamma counter and corrected for background radiation and physical decay during counting. A window from 16 to 69 keV was used for counting ^125I, and a window from 70 to 120 keV was used for counting ^211At. Correlation factors to eliminate any crossover of ^125I activity in the ^211At counts were determined by measuring the ^125I standard in each window. More than one week after the experiments, the radioactivity counts of ^125I were measured after the decay of ^211At. The protein amount in cells was quantified using a BCA Protein Assay Kit (Nacalai Tesque, Kyoto, Japan) according to the manufacturer’s protocol. All data were expressed as percent dose per milligram protein (%dose/mg protein). In blocking experiments, a selective inhibitor of the PSMA, (2S)-2-(phosphonomethyl)pentanedioic acid (2-PMPA) (final concentration 100 µM), was added to each well with tracers. After incubation for 10, 60, and 120 min, radioactivity and protein concentration were determined in the same manner as the experiment without the blocking agent.

[3] = Biodistribution after intravenous co-injection of [125I]5 and [67Ga]Ga-PSMA-617 (Table S1); type: in vivo, normal mice (ddY); settings: normal mice; for Biodistribution of radioactivity: Blood / Biodistribution of radioactivity: Bone / Biodistribution of radioactivity: Brain / Biodistribution of radioactivity: Heart / Biodistribution of radioactivity: Kidney / Biodistribution of radioactivity: L. Intestine / Biodistribution of radioactivity: Liver / Biodistribution of radioactivity: Lung / Biodistribution of radioactivity: Muscle / Biodistribution of radioactivity: Neck / Biodistribution of radioactivity: Pancreas / Biodistribution of radioactivity: S. Intestine / Biodistribution of radioactivity: Spleen / Biodistribution of radioactivity: Stomach: i.v.
Method: [^67Ga]Ga-PSMA-617 (37 kBq) and [^125I]5 (37 kBq) or [^125I]5 (37 kBq) and [^211At]6 (37 kBq) were intravenously co-administered into three or four normal mice at each timepoint (6 weeks male ddY mice, 28–30 g, Japan SLC, Inc., Hamamatsu, Japan). Mice were sacrificed at 10 min, 1 h, 4 h, and 24 h ([^67Ga]Ga-PSMA-617 and [^125I]5) or at 10 min, 1 h, 4 h, 12 h, and 24 h ([^125I]5 and [^211At]6) postinjection of the radiolabeled compounds. Tissues of interest were removed and weighed, and the radioactivity of ^67Ga and ^125I and ^125I and ^211At were determined with an auto well gamma counter (ARC-8001) and corrected for background radiation as described in the Cellular Uptake Experiments Section. To determine the amount and routes of the radioactivity excreted from the body for 24 h after the injection of radiolabeled compounds, mice were housed in metabolic cages (METABOLICA, SUGIYAMA-GEN Co., Ltd., Tokyo, Japan). Data are shown as the percentage of injected dose per gram of tissues (%ID/g) or %ID.

O=C([O-])CN1CCN(CC(=O)[O-])CCN(CC(=O)NC(CCCCNC(=O)CCCc2ccc(I)cc2)C(=O)NCC2CCC(C(=O)NC(Cc3ccc4ccccc4c3)C(=O)NCCCCC(NC(=O)NC(CCC(=O)O)C(=O)O)C(=O)O)CC2)CCN(CC(=O)[O-])CC1.[67Ga+3] (centres unmarked) [[^67Ga]5]
Radiochemical purity after incubation (in vitro stability) [1]: 93.1 ± 0.9% | Effect of excess 2-PMPA on cellular uptake ([2]; 2-PMPA 100 µM): significantly reduced

O=C([O-])CN1CCN(CC(=O)[O-])CCN(CC(=O)NCC2CCC(C(=O)NC(Cc3ccc4ccccc4c3)C(=O)NCCCCC(NC(=O)NC(CCC(=O)O)C(=O)O)C(=O)O)CC2)CCN(CC(=O)[O-])CC1.[67Ga+3] (centres unmarked) [[^67Ga]Ga-PSMA-617, reference compound]
Clearance from organs ([3]; 1 h postinjection): rapid clearance from most organs except the kidney | Excretion in feces ([3]; 24 h postinjection): 2.4 ± 0.3 %ID | Excretion in urine ([3]; 24 h postinjection): 58.0 ± 2.6 %ID | Biodistribution of radioactivity: Blood ([3]; 10 min after injection): 3.40 (0.42) % injected dose per gram | Biodistribution of radioactivity: Bone ([3]; 10 min after injection): 1.02 (0.23) % injected dose per gram | Biodistribution of radioactivity: Brain ([3]; 10 min after injection): 0.11 (0.02) % injected dose per gram | Biodistribution of radioactivity: Heart ([3]; 10 min after injection): 1.22 (0.11) % injected dose per gram | Biodistribution of radioactivity: Kidney ([3]; 10 min after injection): 69.46 (8.76) % injected dose per gram | Biodistribution of radioactivity: L. Intestine ([3]; 10 min after injection): 0.58 (0.07) % injected dose per gram | Biodistribution of radioactivity: Liver ([3]; 10 min after injection): 0.74 (0.10) % injected dose per gram | Biodistribution of radioactivity: Lung ([3]; 10 min after injection): 2.60 (0.40) % injected dose per gram | Biodistribution of radioactivity: Muscle ([3]; 10 min after injection): 0.75 (0.08) % injected dose per gram | Biodistribution of radioactivity: Neck ([3]; 10 min after injection): 0.02 (0.01) % injected dose | Biodistribution of radioactivity: Pancreas ([3]; 10 min after injection): 1.03 (0.18) % injected dose per gram | Biodistribution of radioactivity: S. Intestine ([3]; 10 min after injection): 0.75 (0.03) % injected dose per gram | Biodistribution of radioactivity: Spleen ([3]; 10 min after injection): 0.96 (0.09) % injected dose per gram | Biodistribution of radioactivity: Stomach ([3]; 10 min after injection): 0.38 (0.02) % injected dose | Biodistribution of radioactivity: Blood ([3]; 1 h after injection): 0.29 (0.04) % injected dose per gram | Biodistribution of radioactivity: Bone ([3]; 1 h after injection): 0.18 (0.04) % injected dose per gram | Biodistribution of radioactivity: Brain ([3]; 1 h after injection): 0.02 (0.00) % injected dose per gram | Biodistribution of radioactivity: Heart ([3]; 1 h after injection): 0.11 (0.00) % injected dose per gram | Biodistribution of radioactivity: Kidney ([3]; 1 h after injection): 16.32 (3.17) % injected dose per gram | Biodistribution of radioactivity: L. Intestine ([3]; 1 h after injection): 0.07 (0.01) % injected dose per gram | Biodistribution of radioactivity: Liver ([3]; 1 h after injection): 0.18 (0.07) % injected dose per gram | Biodistribution of radioactivity: Lung ([3]; 1 h after injection): 0.28 (0.03) % injected dose per gram | Biodistribution of radioactivity: Muscle ([3]; 1 h after injection): 0.09 (0.00) % injected dose per gram | Biodistribution of radioactivity: Neck ([3]; 1 h after injection): 0.00 (0.00) % injected dose | Biodistribution of radioactivity: Pancreas ([3]; 1 h after injection): 0.14 (0.03) % injected dose per gram | Biodistribution of radioactivity: S. Intestine ([3]; 1 h after injection): 0.16 (0.02) % injected dose per gram | Biodistribution of radioactivity: Spleen ([3]; 1 h after injection): 0.14 (0.01) % injected dose per gram | Biodistribution of radioactivity: Stomach ([3]; 1 h after injection): 0.07 (0.02) % injected dose | Biodistribution of radioactivity: Blood ([3]; 4 h after injection): 0.07 (0.01) % injected dose per gram | Biodistribution of radioactivity: Bone ([3]; 4 h after injection): 0.14 (0.05) % injected dose per gram | Biodistribution of radioactivity: Brain ([3]; 4 h after injection): 0.01 (0.00) % injected dose per gram | Biodistribution of radioactivity: Heart ([3]; 4 h after injection): 0.04 (0.02) % injected dose per gram | Biodistribution of radioactivity: Kidney ([3]; 4 h after injection): 1.54 (0.08) % injected dose per gram | Biodistribution of radioactivity: L. Intestine ([3]; 4 h after injection): 0.59 (0.79) % injected dose per gram | Biodistribution of radioactivity: Liver ([3]; 4 h after injection): 0.08 (0.01) % injected dose per gram | Biodistribution of radioactivity: Lung ([3]; 4 h after injection): 0.06 (0.01) % injected dose per gram | Biodistribution of radioactivity: Muscle ([3]; 4 h after injection): 0.02 (0.01) % injected dose per gram | Biodistribution of radioactivity: Neck ([3]; 4 h after injection): 0.00 (0.00) % injected dose | Biodistribution of radioactivity: Pancreas ([3]; 4 h after injection): 0.04 (0.02) % injected dose per gram | Biodistribution of radioactivity: S. Intestine ([3]; 4 h after injection): 0.22 (0.17) % injected dose per gram | Biodistribution of radioactivity: Spleen ([3]; 4 h after injection): 0.05 (0.01) % injected dose per gram | Biodistribution of radioactivity: Stomach ([3]; 4 h after injection): 0.07 (0.04) % injected dose | Biodistribution of radioactivity: Blood ([3]; 24 h after injection): 0.01 (0.00) % injected dose per gram | Biodistribution of radioactivity: Bone ([3]; 24 h after injection): 0.16 (0.04) % injected dose per gram | Biodistribution of radioactivity: Brain ([3]; 24 h after injection): 0.00 (0.00) % injected dose per gram | Biodistribution of radioactivity: Heart ([3]; 24 h after injection): 0.01 (0.01) % injected dose per gram | Biodistribution of radioactivity: Kidney ([3]; 24 h after injection): 0.29 (0.06) % injected dose per gram | Biodistribution of radioactivity: L. Intestine ([3]; 24 h after injection): 0.15 (0.11) % injected dose per gram | Biodistribution of radioactivity: Liver ([3]; 24 h after injection): 0.04 (0.01) % injected dose per gram | Biodistribution of radioactivity: Lung ([3]; 24 h after injection): 0.02 (0.01) % injected dose per gram | Biodistribution of radioactivity: Muscle ([3]; 24 h after injection): 0.01 (0.00) % injected dose per gram | Biodistribution of radioactivity: Neck ([3]; 24 h after injection): 0.00 (0.00) % injected dose | Biodistribution of radioactivity: Pancreas ([3]; 24 h after injection): 0.02 (0.01) % injected dose per gram | Biodistribution of radioactivity: S. Intestine ([3]; 24 h after injection): 0.04 (0.03) % injected dose per gram | Biodistribution of radioactivity: Spleen ([3]; 24 h after injection): 0.03 (0.01) % injected dose per gram | Biodistribution of radioactivity: Stomach ([3]; 24 h after injection): 0.05 (0.04) % injected dose | Cellular uptake and internalization levels compared with [125I]5 and [211At]6 [2]: lower
